The values below come from patent US20240132458A1, “NLRP3 INFLAMMASOME SMALL-MOLECULE INHIBITOR FOR TREATMENT OF ALZHEIMER'S DISEASE” (AJOU UNIVERSITY INDUSTRY-ACADEMIC COOPERATION FOUNDATION, priority 2021, published 2024).

“Also recorded” adds a separate entry of the source.

By IC50 is commonly meant the point on the concentration scale where inhibition reaches its midpoint. As a reminder, the inhibition is the change of the read-out against control, counted positive when it falls.

For one series, the system named is NLRP3, NLRC4. The settings on record: approximate inhibitory concentration, literature; cited from earlier work.
In series [1] the test system is NLRP3. The settings on record: approximate inhibitory concentration, literature; cited from earlier work.
In series [2] the target is T1, NLRP3 (Homo sapiens, UniProt Q96P20).
T1 construct: THP-1 cells (10^5/well) were differentiated with PMA (80 nM, 48 hours) in a 96-well plate; endogenous in cells; host or cells: PMA-differentiated, LPS-primed THP-1 cells
In words: Inhibition of NLRP3 by IL-1β secretion level (ELISA). The format is cell-based. The settings on record: PMA-differentiated THP-1, LPS (10 ng/mL) 4 hours, compound 1 hour, nigericin (10 μM) 1 hour. How it is done:
THP-1 cells (10^5/well) were differentiated with PMA (80 nM, 48 hours) in a 96-well plate (BD Biosciences). The differentiated macrophages were primed with LPS (10 ng/mL) for 4 hours. Thereafter, the cells were treated with each compound for 1 hour in a serum-free medium, followed by activation of NLRP3 by nigericin for an additional 1 hour. The supernatant was collected and the inhibition of human IL-1β secretion was analyzed using the Human IL-1β Uncoated ELISA Kit (Thermo Fisher Scientific, Inc.). A microplate spectrophotometer system (Molecular Devices) was employed to read absorbance in the plate.
For orientation: An ELISA detects its analyte on a solid surface through an enzyme-linked reagent.

The test system of series [3] is NLRP3 signaling pathway (IL-1β, caspase 1). Briefly: Western blot of the NLRP3 signaling pathway. The format is cell-based, human. The settings on record: 10 μM, PMA-differentiated THP-1, LPS/nigericin. The protocol:
Cytoplasmic proteins were extracted using NE-PERTM Nuclear and Cytoplasmic Extraction Reagent (Thermo Fisher Scientific, Inc.), and the total-protein was measured using a Bicinchoninic (BCA) assay kit (Sigma-Aldrich Co.). The proteins were separated by SDS-PAGE and transferred to a membrane using a Mini-PROTEAN Tetra Cell and Mini Trans-Blot Electrophoretic Transfer Cell System (Bio-Rad Laboratories, Hercules, CA, USA). The membranes were blocked with skim milk (5%) for 1 hour, and immunoblotted with antibodies against NLRP3, IL-1β, mature IL-1β (Cell Signaling Technology Inc., Danvers, MA, USA), caspase 1 and β-actin (Santa Cruz Biotechnology Inc., Dallas, TX, USA) at 4° C. overnight. After washing with PBS supplemented with 0.1% of Tween 20, the membranes were treated with a peroxidase-conjugated anti-rabbit or anti-mouse IgG antibody (1:1,000) for 2 hours at room temperature. The SuperSignal West Pico ECL solution (Thermo Fisher Scientific, Inc.) was used to detect protein bands that were visualized on a ChemiDocm Touch Imaging System (Bio-Rad Laboratories).
(In general: In western blotting, separated proteins are transferred to a membrane and probed.)

A further series in a line: Microsomal stability. The series is classed as in vitro ADME, human. How it is done: Stock solutions of NIC7 and NIC7w were prepared at a concentration of 10 mM in DMSO, and were diluted to a concentration of 100 μM with 100% methanol as a working solution. These NIC7 and NIC7w solutions were diluted to a concentration of 1 μM with potassium phosphate buffer (pH 7.4), and then each solution was incubated with 0.5 mg/mL liver microsomes (human) at 37° C. for 5 minutes. The reaction was initiated by adding a NADPH-generating system (3.3 mM glucose-6-phosphate (G6P), 1.3 mM β-NADP^+, 3.3 mM MgCl2, and 0.4 U/mL glucose-6-phosphate dehydrogenase (G6PD)) at 37° C. The reaction was stopped at 0 and 30 minutes using cold acetonitrile containing carbamazepine as an internal standard at 20 ng/mL. After vortexing and centrifugation, the supernatant was analyzed with liquid chromatography with tandem mass spectrometry (LC-MS/MS). All microsomal assays were performed in duplicate.
After sample preparation, 0.1 mL acetonitrile containing 20 ng/mL internal standard was added to a 50 μL aliquot of each biological sample. After vortexing and centrifugation at 12,000 rpm for 10 minutes, 10 μL of the supernatant was analyzed with LC-MS/MS.
In the LC system, a reversed-phase C18 column (BEH C18, 2.1 mm×100 mm i.d., 1.7 μm; Waters, Ireland) was maintained at 4° C. The composition of the mobile phase was changed from 80% of 0.1% formic acid in water to 80% of 0.1% formic acid in acetonitrile for 3 minutes, and then switched to 80% of 0.1% formic acid in water for 3.1 minutes, and maintained at 0.5 at mL/min for 5 minutes. The analytes were monitored on an API5500 triple quadrupole mass spectrometer MS (AB Sciex, Foster City, CA) equipped with a turbo ion spray interface for electrospray ionization and operated in positive ion mode at 5.5 kV and 500° C. at 50 L/min of atomizing gas flow, 50 L/min of turbo ion-spray gas flow, 20 L/min of curtain gas flow, 5.5 kV of ring voltage and 5 Torr of collision gas (nitrogen) pressure. The mass transitions for NIC7, NIC7w and the internal standard were m/z 481.1→165.0 (collision energy, 45 eV), 453.1→165.0 (41.0 eV) and 236.9→194.0 (29 eV), respectively, in the multiple reaction monitoring mode.

In a further series the target is T2, CYP1A2 (Homo sapiens, UniProt P05177).
T2 construct: pooled human liver microsomes were assayed at 0.25 mg/mL concentration; from tissue; host or cells: pooled human liver microsomes
T2 sequence (P05177 1-516): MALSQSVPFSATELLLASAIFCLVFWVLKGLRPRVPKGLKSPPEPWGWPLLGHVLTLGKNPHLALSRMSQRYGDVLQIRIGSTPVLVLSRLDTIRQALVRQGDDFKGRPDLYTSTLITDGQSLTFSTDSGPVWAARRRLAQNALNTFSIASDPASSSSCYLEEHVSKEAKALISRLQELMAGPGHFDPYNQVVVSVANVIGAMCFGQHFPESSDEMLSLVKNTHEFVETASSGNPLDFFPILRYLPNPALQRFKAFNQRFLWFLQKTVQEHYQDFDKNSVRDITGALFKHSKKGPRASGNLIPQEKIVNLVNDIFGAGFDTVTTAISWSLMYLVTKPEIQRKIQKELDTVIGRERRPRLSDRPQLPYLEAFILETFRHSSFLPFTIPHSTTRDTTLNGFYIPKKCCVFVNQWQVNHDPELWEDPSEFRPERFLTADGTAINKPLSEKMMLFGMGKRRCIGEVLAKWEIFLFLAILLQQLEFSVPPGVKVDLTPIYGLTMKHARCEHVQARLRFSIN
Briefly: Cytochrome P450 inhibition. The format is in vitro ADME. The settings on record: probe phenacetin (O-deethylation), pooled human liver microsomes 0.25 mg/mL, read-out: CYP inhibition (% at 10 μM) 1A2. How it is done:
(§1) The inhibitory effects of NIC7 and NIC7w on the metabolism of the five major P450 probe substrates were evaluated using a previously reported method (S. Seino, Diabetologia 55, 2096-2108 (2012)) with minor modifications. A cocktail of substrates (phenacetin O-deethylase, tolbutamide 4-hydroxylase, mephenytoin 4-hydroxylase, dextromethorphan O-demethylase, and midazolam 1′-hydroxylase) was used for five major P450 enzymes, CYP1A2, CYP2C9, CYP2C19, CYP2D6, and CYP3A4, respectively. NIC7 and NIC7w were prepared at a concentration of 10 mM in DMSO and dissolved in methanol at a concentration of 1 mM. In all experiments, the final concentration of an organic solvent (methanol) for cocktail incubation was set at 1.0% (v/v). Both NIC7 and NIC7w were used at 10 μM, and pooled human liver microsomes were assayed at 0.25 mg/mL concentration. The substrate cocktail solution was incubated with the microsomes for 5 min at 37° C. The reaction was initiated by adding an NADPH-generating system (the same as described in Examples 1-5) at 37° C. and 1300 rpm. The reaction was stopped at 10 min by the addition of cold acetonitrile containing carbamazepine as an internal standard at 20 ng/mL. After vortexing and centrifugation, the supernatant was analyzed with LC-MS/MS. All microsomal incubations were performed in triplicate.
(In general: Microsomes from liver hold many membrane-bound enzymes, among them those of drug oxidation.)

A further series concerns the target T3, CYP2C19 (Homo sapiens, UniProt P33261).
T3 construct: pooled human liver microsomes were assayed at 0.25 mg/mL concentration; from tissue; host or cells: pooled human liver microsomes
In words: Cytochrome P450 inhibition. The format is in vitro ADME. The settings on record: probe mephenytoin (4-hydroxylation), pooled human liver microsomes 0.25 mg/mL, read-out: CYP inhibition (% at 10 μM) 2C19. The protocol: as §1

The target of another series is T4, CYP2C9 (Homo sapiens, UniProt P11712).
T4 construct: pooled human liver microsomes were assayed at 0.25 mg/mL concentration; from tissue; host or cells: pooled human liver microsomes
Briefly: Cytochrome P450 inhibition. The series is classed as in vitro ADME. The protocol: as §1

Another series has as its target T5, CYP2D6 (Homo sapiens, UniProt P10635).
T5 construct: pooled human liver microsomes were assayed at 0.25 mg/mL concentration; from tissue; host or cells: pooled human liver microsomes
Briefly: Cytochrome P450 inhibition. The series is classed as in vitro ADME. The settings on record: probe dextromethorphan (O-demethylation), pooled human liver microsomes 0.25 mg/mL, read-out: CYP inhibition (% at 10 μM) 2D6. The protocol:
as §1

The next series concerns the target T6, CYP3A4 (Homo sapiens, UniProt P08684).
T6 construct: pooled human liver microsomes were assayed at 0.25 mg/mL concentration; from tissue; host or cells: pooled human liver microsomes
Briefly: Cytochrome P450 inhibition. The settings on record: probe midazolam (1′-hydroxylation), pooled human liver microsomes 0.25 mg/mL, read-out: CYP inhibition (% at 10 μM) 3A4. The series is classed as in vitro ADME. How it is done:
as §1

Series [4] relates to AD model mice (Aβ1-42 injected). In words: Y-maze test in AD model (spatial working memory). The series is classed as in vivo, C57BL/6 mice. The settings on record: donepezil 1 mg/kg intraperitoneally, 3 days/week; vs vehicle-treated and untreated mice. The protocol:
(§2) 6-week-old male C57BL/6 mice (19 to 22 g) were used, and 5 mice per cage were bred in a feedlot. To create an AD model, experimental animals were administered isoflurane by inhalation, and then injected with Aβ1-42 (5 μL) using a Hamilton microsyringe with a 26-gauge needle. The AD model mice were trained for 20 minutes/mouse for 2 days before the experimental procedure, and then subjected to Y-maze tests and novel object recognition tests (for cognitive evaluation). Behavioral evaluation was performed 7 days after Aβ1-42 injection. The animals were subdivided into AD, NIC7-treated, vehicle (DMSO)-treated, donepezil-treated (positive control) and normal (no-disease) groups. Cognitive evaluation was performed on days 7, 14, 21 and 28 after injection.
The alteration in spatial cognitive behavior was assessed using a Y-maze apparatus with three horizontal identical arms (35 cm long×15 cm high×5 cm wide) symmetrically arranged at 120° to each other. The evaluation was performed in the Y-maze test 7 days after Aβ injection. After introduction into the Y-maze, each animal was allowed to move freely for 2 minutes and then measured for 5 minutes. The test subjects tended to enter an arm different from the arm they had previously visited. The number of arm entries and triads was recorded to calculate the percentage of alternation. […]

Series [5] shares this test system. Briefly: Novel object recognition test in AD model. The format is in vivo, C57BL/6 mice. The settings on record: donepezil 1 mg/kg intraperitoneally; vs vehicle-treated or untreated mice. The protocol:
as §2
A novel object recognition test was performed in an open field box containing two identical objects. Animals were first familiarized with these identical objects for 2 minutes, and then one of the objects was replaced with a novel object, followed by reading for 5 minutes. The time spent with an identical object (tA) and the time spent with a novel object (tB) were calculated, and the recognition index ratio was calculated via the formula (tB/(tA+tB))×100.

T4 sequence (P11712 whole entry): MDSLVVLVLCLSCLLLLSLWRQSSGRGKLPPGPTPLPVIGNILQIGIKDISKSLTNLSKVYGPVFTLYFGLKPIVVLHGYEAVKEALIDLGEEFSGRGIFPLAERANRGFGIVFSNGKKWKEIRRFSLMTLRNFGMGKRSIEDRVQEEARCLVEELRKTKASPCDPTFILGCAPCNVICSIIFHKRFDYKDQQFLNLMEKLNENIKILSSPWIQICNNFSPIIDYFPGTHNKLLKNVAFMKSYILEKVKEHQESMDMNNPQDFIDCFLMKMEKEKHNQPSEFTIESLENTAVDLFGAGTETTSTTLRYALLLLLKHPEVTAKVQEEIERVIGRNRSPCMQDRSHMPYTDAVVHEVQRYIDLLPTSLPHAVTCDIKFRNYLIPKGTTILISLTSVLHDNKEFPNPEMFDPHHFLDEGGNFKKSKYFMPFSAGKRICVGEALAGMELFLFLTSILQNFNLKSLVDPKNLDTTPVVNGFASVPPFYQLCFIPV
T1 sequence (Q96P20 whole entry): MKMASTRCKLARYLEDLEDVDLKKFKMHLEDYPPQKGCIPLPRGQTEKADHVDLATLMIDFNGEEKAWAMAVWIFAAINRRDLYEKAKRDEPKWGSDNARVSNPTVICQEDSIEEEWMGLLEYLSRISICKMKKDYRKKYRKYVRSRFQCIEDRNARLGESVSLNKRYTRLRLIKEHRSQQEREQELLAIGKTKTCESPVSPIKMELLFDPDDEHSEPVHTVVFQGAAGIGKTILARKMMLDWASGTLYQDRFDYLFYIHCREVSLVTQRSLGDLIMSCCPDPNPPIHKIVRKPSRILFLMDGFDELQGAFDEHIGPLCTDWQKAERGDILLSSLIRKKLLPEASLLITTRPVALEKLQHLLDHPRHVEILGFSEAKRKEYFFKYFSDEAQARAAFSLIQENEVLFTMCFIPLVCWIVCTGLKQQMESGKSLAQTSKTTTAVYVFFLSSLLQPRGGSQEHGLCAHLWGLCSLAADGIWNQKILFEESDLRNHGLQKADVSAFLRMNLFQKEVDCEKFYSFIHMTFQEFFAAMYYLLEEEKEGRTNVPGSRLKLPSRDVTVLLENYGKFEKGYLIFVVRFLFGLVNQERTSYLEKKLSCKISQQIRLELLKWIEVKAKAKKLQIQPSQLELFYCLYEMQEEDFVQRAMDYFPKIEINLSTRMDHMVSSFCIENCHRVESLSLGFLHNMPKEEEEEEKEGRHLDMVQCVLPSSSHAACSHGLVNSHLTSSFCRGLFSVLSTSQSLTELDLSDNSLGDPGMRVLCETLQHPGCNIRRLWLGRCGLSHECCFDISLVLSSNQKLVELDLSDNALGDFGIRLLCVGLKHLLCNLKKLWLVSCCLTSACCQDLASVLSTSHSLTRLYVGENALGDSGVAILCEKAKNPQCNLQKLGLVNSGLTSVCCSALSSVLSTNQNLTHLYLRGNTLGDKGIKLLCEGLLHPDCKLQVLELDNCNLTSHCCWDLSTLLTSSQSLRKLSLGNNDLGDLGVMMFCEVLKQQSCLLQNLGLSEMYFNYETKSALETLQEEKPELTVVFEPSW
T3 sequence (P33261 whole entry): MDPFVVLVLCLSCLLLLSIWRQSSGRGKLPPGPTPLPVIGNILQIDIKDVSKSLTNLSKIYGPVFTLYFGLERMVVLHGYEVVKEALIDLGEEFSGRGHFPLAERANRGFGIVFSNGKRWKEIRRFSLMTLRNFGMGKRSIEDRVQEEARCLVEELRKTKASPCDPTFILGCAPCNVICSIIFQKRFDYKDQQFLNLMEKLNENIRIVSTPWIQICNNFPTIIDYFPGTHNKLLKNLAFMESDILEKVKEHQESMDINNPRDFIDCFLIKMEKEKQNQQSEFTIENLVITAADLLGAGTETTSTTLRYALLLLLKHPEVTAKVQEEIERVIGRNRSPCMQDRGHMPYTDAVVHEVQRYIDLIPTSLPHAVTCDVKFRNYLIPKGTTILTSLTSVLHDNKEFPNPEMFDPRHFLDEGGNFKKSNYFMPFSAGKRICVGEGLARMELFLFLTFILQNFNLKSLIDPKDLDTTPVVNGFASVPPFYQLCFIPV
T5 sequence (P10635 whole entry): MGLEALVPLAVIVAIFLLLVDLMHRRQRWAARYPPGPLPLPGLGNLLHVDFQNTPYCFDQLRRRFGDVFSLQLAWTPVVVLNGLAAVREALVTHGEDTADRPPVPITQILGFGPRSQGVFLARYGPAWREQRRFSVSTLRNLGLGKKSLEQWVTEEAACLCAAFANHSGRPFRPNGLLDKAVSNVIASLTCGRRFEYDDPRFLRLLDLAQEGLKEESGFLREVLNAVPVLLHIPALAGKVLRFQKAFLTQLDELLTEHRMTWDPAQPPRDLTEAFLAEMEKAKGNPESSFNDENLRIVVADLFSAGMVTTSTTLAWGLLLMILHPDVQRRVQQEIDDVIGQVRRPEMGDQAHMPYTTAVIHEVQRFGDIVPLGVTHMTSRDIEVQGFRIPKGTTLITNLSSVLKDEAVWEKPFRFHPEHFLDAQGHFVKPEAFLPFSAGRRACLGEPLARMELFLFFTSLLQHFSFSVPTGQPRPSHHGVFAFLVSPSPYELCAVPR
T6 sequence (P08684 whole entry): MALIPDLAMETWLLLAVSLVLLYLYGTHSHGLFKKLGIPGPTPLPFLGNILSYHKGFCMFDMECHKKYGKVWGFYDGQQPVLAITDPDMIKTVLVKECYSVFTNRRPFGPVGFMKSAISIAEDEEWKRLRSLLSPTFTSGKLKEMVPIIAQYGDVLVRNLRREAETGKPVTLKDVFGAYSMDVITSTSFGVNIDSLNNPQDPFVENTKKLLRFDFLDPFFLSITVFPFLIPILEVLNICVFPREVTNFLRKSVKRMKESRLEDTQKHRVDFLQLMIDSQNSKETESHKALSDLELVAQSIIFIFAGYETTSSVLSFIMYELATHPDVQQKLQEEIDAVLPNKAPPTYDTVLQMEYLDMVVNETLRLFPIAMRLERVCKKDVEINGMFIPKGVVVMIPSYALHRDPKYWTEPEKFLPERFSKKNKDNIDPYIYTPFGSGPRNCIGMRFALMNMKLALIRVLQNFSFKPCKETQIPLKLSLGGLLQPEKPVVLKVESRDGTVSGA

For the molecule `CC1CC(=O)c2s/c(=N\C3CCCCC3)oc2C1` (stereo not shown) [BOT-4-one], in the series with NLRP3, NLRC4, the IC50 is 0.59 to 1.28 µM.
For the molecule `Cc1ccc(S(=O)(=O)/C=C/C#N)cc1` [Bay 11-7082], the IC50 with NLRP3, NLRC4 is approximately 5 µM.
With `O=C(O)c1ccc(/C=C2/SC(=S)N(Cc3cccc(C(F)(F)F)c3)C2=O)cc1` [CY-09], the 50% inhibitory concentration (IC50) in the series on NLRP3 [1] is approximately 5000 nM.
Consider `O=[N+]([O-])/C=C/c1ccc2c(c1)OCO2` [MNS], for which, in the series with NLRP3 [1], the IC50 was approximately 2000 nM.
Consider `Cc1ccc(S(=O)(=O)Nc2nc3cc(NC(=O)NCc4ccccc4)ccc3s2)cc1` [NIC7w, N-(5-(3-benzylureido)benzo[d]thiazol-2-yl)-4-methylbenzenesulfonamide], for which, at NLRP3 [2], the “inhibition of IL-1β secretion caused by NLRP3” value is “most potent inhibition; also recorded: in a dose-dependent manner, more strongly and significantly than NIC7”. In addition, the “inhibition of IL-1β and caspase 1 (Western blot)” value in series [3] was “inhibition”. Further, the “metabolic stability versus positive control compound” value in the series “Microsomal stability” is “better half-life and stability than a positive control compound”. Besides, the “Microsomal stability (% at 30 min)” value in “Microsomal stability” (Human liver microsomes 0.5 mg/mL, 1 μM compound, 37° C.) is recorded as “Human: 49.5%”. Moreover, the “increase of amount of drug remaining after 30 minutes of metabolism compared to NIC7” value in “Microsomal stability” (human liver microsomes) stood at 29.8%. Moreover, the inhibition at 10 min, 10 µM at CYP1A2 is less than 1%; on CYP2C19, 15.4%; at CYP2C9 (probe tolbutamide (4-hydroxylation), pooled human liver microsomes 0.25 mg/mL, tolbutamide, read-out: CYP inhibition (% at 10 μM) 2C9), 39.4%; on CYP2D6, 9.1%; at CYP3A4 it was less than 1%. The “CYP enzyme selectivity of inhibition” value at CYP2C9 (five P450 enzymes, 10 μM) was “acted mainly on CYP2C9 enzyme and hardly acted on other types of CYP enzymes”.
As to `CS(=O)(=O)CCC#N` [OLT1177], the IC50 in the series on NLRP3 [1] was approximately 1000 nM.
On to `COc1cc2c(cc1OC)C(=O)C(CC1CCN(Cc3ccccc3)CC1)C2` (stereo not shown) [donepezil, reference compound], for which the “Y-maze test, spatial working memory” value in series [4] is recorded as “spent more time in the novel arm”. For the same molecule, the “recognition index rate (novel object recognition test)” value in series [5] was “better”.
As to NBC6, the concentration for half-maximal inhibition (IC50) with NLRP3 [1] is approximately 574 nM.
